Biological target: SARS-CoV-2 3CL-protease (Severe acute respiratory syndrome coronavirus 2, UniProt P0DTD1)
Assay: SARS-CoV-2 3C-Like (3CL) Protease Fluorescence Assay (FRET)
Assay type: biochemical
Settings: SARS-CoV-2 3CL-protease 10 nM, 30 min preincubation at RT, substrate 40 μM

Row | Compound | IC50 [nM]
1 | [2H]C([2H])([2H])N(C(=O)c1cn(C2CCC2)nn1)[C@@H](CCCC)C(=O)N1C[C@]2(C[C@H]1C#N)C(=O)Nc1ccccc12 [Example 392] | < 100
2 | [2H]C([2H])([2H])N(C(=O)c1cn(C(C)(C)C)nn1)[C@@H](CCCC)C(=O)N1C[C@]2(C[C@H]1C#N)C(=O)Nc1ccccc12 [Example 393] | < 100
3 | [2H]C([2H])([2H])N(C(=O)c1cnn(CC(F)(F)F)c1)[C@@H](CC1CC1)C(=O)N1C[C@]2(C[C@H]1C#N)C(=O)Nc1ccccc12 [Example 395] | < 100
4 | [2H]C([2H])([2H])N(C(=O)c1cnn(-c2ccc(C(F)(F)F)cc2)c1)[C@@H](CC1CC1)C(=O)N1C[C@]2(C[C@H]1C#N)C(=O)Nc1ccccc12 [Example 396] | < 100
5 | [2H]C([2H])([2H])N(C(=O)c1nnn2ccccc12)[C@@H](CCCC)C(=O)N1C[C@]2(C[C@H]1C#N)C(=O)Nc1ccccc12 [Example 397] | < 100
6 | [2H]C([2H])([2H])N(C(=O)c1cnn2cc(Cl)ccc12)[C@@H](CCCC)C(=O)N1C[C@]2(C[C@H]1C#N)C(=O)Nc1ccccc12 [Example 398] | < 100
7 | [2H]C([2H])([2H])N(C(=O)c1cnn(C(C)(C)C)c1C(F)(F)F)[C@@H](CC1CC1)C(=O)N1C[C@]2(C[C@H]1C#N)C(=O)Nc1ccccc12 [Example 400] | < 100
8 | [2H]C([2H])([2H])N(C(=O)c1cn(CC(F)(F)F)nc1C1CC1)[C@@H](CC1CC1)C(=O)N1C[C@]2(C[C@H]1C#N)C(=O)Nc1ccccc12 [Example 401] | < 100
9 | CN(C(=O)c1cn(C(C)(C)C)nn1)[C@@H](CC1CC1)C(=O)N1C[C@]2(C[C@H]1C#N)C(=O)Nc1ccccc12 [Example 402] | < 100
10 | CN(C(=O)c1cnn(-c2ccc(F)cc2)c1)[C@@H](CC1CC1)C(=O)N1C[C@]2(C[C@H]1C#N)C(=O)Nc1ccccc12 [Example 405] | < 100
11 | CN(C(=O)c1cnn(-c2ccc(C(F)(F)F)cc2)c1)[C@@H](CC1CC1)C(=O)N1C[C@]2(C[C@H]1C#N)C(=O)Nc1ccccc12 [Example 406] | < 100
12 | CN(C(=O)c1cnc(C(F)(F)F)[nH]1)[C@@H](CC1CC1)C(=O)N1C[C@]2(C[C@H]1C#N)C(=O)Nc1ccccc12 [Example 407] | < 100
13 | CCCC[C@@H](C(=O)N1C[C@]2(C[C@H]1C#N)C(=O)Nc1ccccc12)N(C)C(=O)c1cnn(C(C)(C)C)c1 [Example 408] | < 100
14 | CN(C(=O)c1cnn(C(C)(C)C)c1Cl)[C@@H](CC1CC1)C(=O)N1C[C@]2(C[C@H]1C#N)C(=O)Nc1ccccc12 [Example 409] | < 100
15 | CN(C(=O)c1cnc(C(C)(C)C)[nH]1)[C@@H](CC1CC1)C(=O)N1C[C@]2(C[C@H]1C#N)C(=O)Nc1ccccc12 [Example 410] | < 100
16 | CN(C(=O)c1cnn(C2CCCCC2)c1)[C@@H](CC1CC1)C(=O)N1C[C@]2(C[C@H]1C#N)C(=O)Nc1ccccc12 [Example 411] | < 100
17 | CN(C(=O)c1cc2c(F)cc(F)c(F)c2[nH]1)[C@@H](CCC(C)(C)C)C(=O)N1C[C@]2(C[C@H]1C#N)C(=O)Nc1ccccc12 [Example 412] | < 100
18 | CCCOC[C@@H](C(=O)N1C[C@]2(C[C@H]1C#N)C(=O)Nc1ccccc12)N(C)C(=O)c1cc2c(F)cc(F)cc2[nH]1 [Example 413, N—((S)-1-((3R,5′S)-5′-cyano-2-oxospiro[indoline-3,3′-pyrrolidin]-1′-yl)-1-oxo-3-propoxypropan-2-yl)-4,6-difluoro-N-methyl-1H-indole-2-carboxamide] | < 100
19 | CN(C(=O)[C@H](O)C(C)(C)C)[C@@H](CC1CC1)C(=O)N1C[C@]2(C[C@H]1C#N)C(=O)Nc1ccccc12 [Example 417] | < 100

Row | Compound | IC50 [nM]
20 | CCCC[C@H](NC(=O)[C@@H](O)c1ccc(F)cc1)C(=O)N1C[C@]2(C[C@H]1C#N)C(=O)Nc1ccccc12 [Example 418] | < 100
21 | CCCC[C@H](NC(=O)[C@H](O)c1ccc(F)cc1)C(=O)N1C[C@]2(C[C@H]1C#N)C(=O)Nc1ccccc12 [Example 419] | < 100
22 | CN(C(=O)[C@H](O)Cc1ccc(F)cc1)[C@@H](CC1CC1)C(=O)N1C[C@]2(C[C@H]1C#N)C(=O)Nc1ccccc12 [Example 423] | < 100
23 | CC(C)C[C@@H](O)C(=O)N(C)[C@@H](CC1CC1)C(=O)N1C[C@]2(C[C@H]1C#N)C(=O)Nc1ccccc12 [Example 424] | < 100
24 | CN(C(=O)[C@H](O)c1ccccc1F)[C@@H](CC1CC1)C(=O)N1C[C@]2(C[C@H]1C#N)C(=O)Nc1ccccc12 [Example 425] | < 100
25 | CN(C(=O)[C@H](O)c1ccccc1Cl)[C@@H](CC1CC1)C(=O)N1C[C@]2(C[C@H]1C#N)C(=O)Nc1ccccc12 [Example 426] | < 100
26 | [2H]C([2H])([2H])N(C(=O)[C@@H](O)c1ccccc1)[C@@H](CC(C)(C)C)C(=O)N1C[C@]2(C[C@H]1C#N)C(=O)Nc1ccccc12 [Example 427] | < 100
27 | [2H]C([2H])([2H])N(C(=O)[C@H](O)c1ccccc1)[C@@H](CC(C)(C)C)C(=O)N1C[C@]2(C[C@H]1C#N)C(=O)Nc1ccccc12 [Example 428] | < 100
28 | COc1ccc(CN(C(=O)C(F)(F)F)[C@@H](CC(C)C)C(=O)N2C[C@]3(C[C@H]2C#N)C(=O)Nc2ccccc23)cc1 [Example 429] | > 1000
29 | COc1cccc(CN(C(=O)C(F)(F)F)[C@@H](CC(C)C)C(=O)N2C[C@]3(C[C@H]2C#N)C(=O)Nc2ccccc23)c1 [Example 430] | > 1000
30 | COc1ccccc1CN(C(=O)C(F)(F)F)[C@@H](CC(C)C)C(=O)N1C[C@]2(C[C@H]1C#N)C(=O)Nc1ccccc12 [Example 431] | > 1000
31 | CC(C)C[C@@H](C(=O)N1C[C@]2(C[C@H]1C#N)C(=O)Nc1ccccc12)N(C(=O)C(F)(F)F)C(C)C [Example 432] | > 1000
32 | CC(C)C[C@@H](C(=O)N1C[C@]2(C[C@H]1C#N)C(=O)Nc1ccccc12)N(C)C(=O)NCc1ccccc1 [Example 433] | < 100
33 | CC(C)C[C@@H](C(=O)N1C[C@]2(C[C@H]1C#N)C(=O)Nc1ccccc12)N(C)C(=O)N1Cc2cn[nH]c2C1 [Example 434] | 100 to 1000
34 | CC(C)(C)C[C@H](NC(=O)Nc1ccccc1)C(=O)N1C[C@]2(C[C@H]1C#N)C(=O)Nc1ccccc12 [Example 435] | 100 to 1000
35 | CC(C)(C)C[C@H](NC(=O)Nc1ccc(F)cc1F)C(=O)N1C[C@]2(C[C@H]1C#N)C(=O)Nc1ccccc12 [Example 436] | 100 to 1000
36 | CC(C)(C)C[C@H](NC(=O)Nc1c(F)cccc1F)C(=O)N1C[C@]2(C[C@H]1C#N)C(=O)Nc1ccccc12 [Example 437] | 100 to 1000
37 | Cc1cccc(C)c1NC(=O)N[C@@H](CC(C)(C)C)C(=O)N1C[C@]2(C[C@H]1C#N)C(=O)Nc1ccccc12 [Example 438] | 100 to 1000
38 | CC(C)(C)C[C@H](NC(=O)Nc1ccc2ccccc2c1)C(=O)N1C[C@]2(C[C@H]1C#N)C(=O)Nc1ccccc12 [Example 439] | 100 to 1000

Row | Compound | IC50 [nM]
39 | CC(C)(C)C[C@H](NC(=O)NC1CCCCC1)C(=O)N1C[C@]2(C[C@H]1C#N)C(=O)Nc1ccccc12 [Example 440] | < 100
40 | CC(C)(C)C[C@H](NC(=O)Nc1ccc(F)cc1)C(=O)N1C[C@]2(C[C@H]1C#N)C(=O)Nc1ccccc12 [Example 441] | 100 to 1000
41 | CC(=O)C[C@@H](C(=O)N1C[C@]2(C[C@H]1C#N)C(=O)Nc1ccccc12)N(C)C(=O)c1cc2c(F)cc(F)cc2[nH]1 [Example 442] | < 100
42 | CN(C(=O)c1cc2c(F)cc(F)cc2[nH]1)[C@@H](CC(C)(C)O)C(=O)N1C[C@]2(C[C@H]1C#N)C(=O)Nc1ccccc12 [Example 443] | 100 to 1000
43 | CN(C(=O)c1cc2c(F)cc(F)c(F)c2[nH]1)[C@@H](CC(C)(C)O)C(=O)N1C[C@]2(C[C@H]1C#N)C(=O)Nc1ccccc12 [Example 444] | 100 to 1000
44 | CC(C)(F)C[C@H](NC(=O)COc1ccc(F)cc1F)C(=O)N1C[C@]2(C[C@H]1C#N)C(=O)Nc1ccc(Cl)cc12 [Example 445] | 100 to 1000
45 | CC(C)(F)C[C@H](NC(=O)c1cc2ccccn2n1)C(=O)N1C[C@]2(C[C@H]1C#N)C(=O)Nc1ccc(Cl)cc12 [Example 446] | 100 to 1000
46 | CC(C)(F)C[C@H](NC(=O)c1cccc(OC(F)(F)F)c1)C(=O)N1C[C@]2(C[C@H]1C#N)C(=O)Nc1ccc(Cl)cc12 [Example 447] | < 100
47 | CC(C)(C)C[C@H](NC(=O)c1cc2c(F)cc(F)cc2[nH]1)C(=O)N1C[C@]2(C[C@H]1C#N)C(=O)Nc1ccc(Cl)cc12 [Example 448] | < 100
48 | CC(C)(F)C[C@H](NC(=O)c1ccc(F)cc1F)C(=O)N1C[C@]2(C[C@H]1C#N)C(=O)Nc1ccc(Cl)cc12 [Example 449] | 100 to 1000
49 | CC(C)(C)C[C@H](NC(=O)c1cc2c(Cl)cccc2[nH]1)C(=O)N1C[C@]2(C[C@H]1C#N)C(=O)Nc1ccc(Cl)cc12 [Example 450] | < 100
50 | N#C[C@@H]1C[C@@]2(CN1C(=O)[C@H](Cc1ccccc1F)NC(=O)c1cc3c(F)cc(F)cc3[nH]1)C(=O)Nc1ccc(Cl)cc12 [Example 451] | < 100
51 | N#C[C@@H]1C[C@@]2(CN1C(=O)[C@H](Cc1ccc(F)cc1)NC(=O)c1cc3c(F)cc(F)cc3[nH]1)C(=O)Nc1ccc(Cl)cc12 [Example 452] | < 100
52 | N#C[C@@H]1C[C@@]2(CN1C(=O)[C@H](CC1CC1)NC(=O)c1cc3c(F)cc(F)cc3[nH]1)C(=O)Nc1ccc(Cl)cc12 [Example 453] | < 100
53 | [2H]C([2H])([2H])N(C(=O)c1cc2c(F)cc(F)cc2[nH]1)[C@@H](CC(C)(C)F)C(=O)N1C[C@]2(C[C@H]1C#N)C(=O)Nc1ccc(Cl)cc12 [Example 454] | < 100
54 | CN(C(=O)c1cc2c(F)cc(F)cc2[nH]1)[C@@H](CC(C)(C)F)C(=O)N1C[C@]2(C[C@H]1C#N)C(=O)Nc1ccc(Cl)cc12 [Example 455] | < 100
55 | CN(C(=O)c1cc2ncccc2[nH]1)[C@@H](CC1CC1)C(=O)N1C[C@]2(C[C@H]1C#N)C(=O)Nc1ccc(Cl)cc12 [Example 456] | < 100
56 | CN(C(=O)c1cc2cnccc2[nH]1)[C@@H](CC1CC1)C(=O)N1C[C@]2(C[C@H]1C#N)C(=O)Nc1ccc(Cl)cc12 [Example 457] | < 100
57 | CN(C(=O)c1cc2ccncc2[nH]1)[C@@H](CC1CC1)C(=O)N1C[C@]2(C[C@H]1C#N)C(=O)Nc1ccc(Cl)cc12 [Example 458] | < 100

Source: patent US12540141B2, “Spiropyrrolidine derived antiviral agents” (priority 2020, dated 2026)
